Like-named read-outs stand apart in the source and are kept apart here.
What was measured:
VIM-1 = VIM-1 (Pseudomonas aeruginosa (strain ATCC 15692 / DSM 22644 / CIP 104116 / JCM 14847 / LMG 12228 / 1C / PRS 101 / PAO1), UniProt A0A0F7KYQ8); experiment: Enzyme activity: determination of IC50, fluorescence assay with CCF2-FA substrate (VIM-1); assay type: biochemical
IMP-1 = IMP-1 (Serratia marcescens, UniProt P52699); experiment: biochemical; assay type: biochemical; conditions: read-out: IMP-1 IC50
[1] = tested on: Escherichia coli expressing NDM-1 (CLB30016); experiment: Antibiotic potentiation activity: synergistic concentration (MITC95) with imipenem, OD600 growth; assay type: cell-based; conditions: for Escherichia coli expressing NDM-1 (CLB 30016) MITC95: concentration giving 95% inhibition of bacterial growth
How it was run: (§1)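 Compound activity is tested with and without imipenem, which is present at 4 μg/ml (or 1 μg/ml) in the well. Bacteria in 1.1× CAMHB are incubated 22–24 h at 35 °C; absorbance gives the growth endpoint.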

[2] = tested on: Serratia marcescens expressing IMP-1 (CL5741); experiment: as above; assay type: cell-based; conditions: for Serratia marcescens expressing IMP-1 (CL5741) MITC95: concentration giving 95% inhibition of bacterial growth
How it was run: as §1

[3] = tested on: Klebsiella pneumoniae expressing VIM-1 (IHMA599644); experiment: as above; assay type: cell-based; conditions: for Klebsiella pneumoniae expressing VIM-1 (IHMA 599644) MITC95: concentration giving 95% inhibition of bacterial growth
How it was run: as §1

NDM-1 = NDM-1 (Klebsiella pneumoniae, UniProt C7C422); experiment: biochemical; assay type: biochemical; conditions: read-out: NDM-1 IC50
[4] = VIM-1 IC50, fluorescence assay with CCF2-FA substrate
[5] = fluorescence assay with CCF2-FA substrate
[6] = CLB30016 (NDM-1), 95% inhibition of bacterial growth
[7] = CL5741 (IMP-1), 95% inhibition of bacterial growth
[8] = IHMA599644 (VIM-1), 95% inhibition of bacterial growth
[9] = VIM-1 enzyme, CCF2-FA fluorescence assay, read-out: VIM-1 IC50
[10] = IMP-1 enzyme, CCF2-FA fluorescence assay
[11] = Escherichia coli expressing NDM-1 (CLB30016), 95% growth inhibition
[12] = Serratia marcescens expressing IMP-1 (CL5741), 95% growth inhibition
[13] = Klebsiella pneumoniae expressing VIM-1 (IHMA599644), 95% growth inhibition
[14] = NDM-1 enzyme, CCF2-FA fluorescence assay
[15] = VIM-1 enzyme, CCF2-FA substrate, read-out: VIM-1 IC50
[16] = IMP-1 enzyme, CCF2-FA substrate
[17] = (CLB30016, NDM-1), 95% growth inhibition
[18] = Serratia marcescens CL5741 (IMP-1), 95% growth inhibition
[19] = Klebsiella pneumoniae IHMA599644 (VIM-1), 95% growth inhibition
[20] = NDM-1 enzyme, CCF2-FA substrate
[21] = fluorescence assay with CCF2-FA substrate, read-out: VIM-1 IC50

Sequence of NDM-1 (C7C422 whole entry, looked up, species assumed): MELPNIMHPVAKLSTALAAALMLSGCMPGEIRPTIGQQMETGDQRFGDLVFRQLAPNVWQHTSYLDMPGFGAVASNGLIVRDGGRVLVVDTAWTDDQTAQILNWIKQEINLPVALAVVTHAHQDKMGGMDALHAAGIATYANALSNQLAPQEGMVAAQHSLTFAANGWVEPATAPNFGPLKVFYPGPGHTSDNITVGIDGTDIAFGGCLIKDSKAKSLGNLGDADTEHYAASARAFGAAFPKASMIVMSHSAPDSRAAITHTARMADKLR
Sequence of IMP-1 (P52699 whole entry, looked up): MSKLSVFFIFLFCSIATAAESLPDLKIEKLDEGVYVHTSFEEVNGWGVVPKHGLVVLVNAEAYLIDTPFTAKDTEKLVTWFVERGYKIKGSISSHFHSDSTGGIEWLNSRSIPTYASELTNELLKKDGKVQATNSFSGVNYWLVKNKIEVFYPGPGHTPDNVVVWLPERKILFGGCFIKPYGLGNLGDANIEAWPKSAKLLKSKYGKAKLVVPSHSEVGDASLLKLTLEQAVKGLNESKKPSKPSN

Row | Compound | IC50 (IMP-1; [5]) | IC50 (NDM-1; [5]) | IC50 (VIM-1; [9]) | IC50 (IMP-1; [10]) | Escherichia coli MITC95 [1, 11] | Serratia marcescens MITC95 [2, 12] | Klebsiella pneumoniae MITC95 [3, 13] | IC50 (NDM-1; [14]) | further results
1 | Cc1cc2nccn2cc1-c1cccc(S(N)(=O)=O)c1-c1nnn[nH]1 [Example 115, 3-(7-methylimidazo[1,2-a]pyridin-6-yl)-2-(1H-tetrazol-5-yl)benzenesulfonamide] | 544 nM | 7.81 nM | – | – | – | – | – | – | IC50 (VIM-1; [4]): 54.4 nM; Escherichia coli expressing NDM-1 (CLB 30016) MITC95 [1]: 0.25 µM; Serratia marcescens expressing IMP-1 (CL5741) MITC95 [2]: 18.75 µM; Klebsiella pneumoniae expressing VIM-1 (IHMA 599644) MITC95 [3]: 37.5 µM
2 | NS(=O)(=O)c1c(C(F)(F)F)ccc(N2C[C@@H](O)[C@@H](O)C2)c1-c1nnn[nH]1 [Example 757, 3-[(3R,4S)-3,4-dihydroxypyrrolidin-1-yl]-2-(1H-tetrazol-5-yl)-6-(trifluoromethyl) benzenesulfonamide] | 111 nM | 82.8 nM | – | – | – | – | – | – | IC50 (VIM-1; [4]): 353 nM; Escherichia coli MITC95 [1, 6]: 12.5 µM; Serratia marcescens MITC95 [2, 7]: 25 µM; Klebsiella pneumoniae MITC95 [3, 8]: >200 µM
3 | NS(=O)(=O)c1c(CC2CCNCC2(F)F)ccc(-c2ccc(C3CCNCC3)cc2)c1-c1nn[nH]n1 (stereo not drawn) [Example 465, 4-((3,3-difluoropiperidin-4-yl)methyl)-4′-(piperidin-4-yl)-2-(2H-tetrazol-5-yl)-[1,1′-biphenyl]-3-sulfonamide] | – | – | 1.64 nM | 3.31 nM | 3.125 µM | 3.125 µM | 12.5 µM | 2.7 nM | –
4 | NS(=O)(=O)c1c(CC2(F)CCNCC2)ccc(-c2ccc(C3CCNCC3)cc2)c1-c1nn[nH]n1 [Example 464, 4-((4-fluoropiperidin-4-yl)methyl)-4′-(piperidin-4-yl)-2-(2H-tetrazol-5-yl)-[1,1′-biphenyl]-3-sulfonamide] | – | – | 1.95 nM | 18.7 nM | 0.7813 µM | 1.563 µM | 1.563 µM | 3.82 nM | –
5 | NCc1ccc2cc(-c3cccc(S(N)(=O)=O)c3-c3nn[nH]n3)ccc2n1 [Example 286, 3-(2-(aminomethyl)quinolin-6-yl)-2-(2H-tetrazol-5-yl)benzenesulfonamide] | – | – | 12.7 nM | 204 nM | 0.7813 µM | 3.125 µM | 3.125 µM | 6.14 nM | –
6 | NC(=O)c1ccc(-c2ccc(C(F)(F)F)c(S(N)(=O)=O)c2-c2nn[nH]n2)cn1 [Example 527, 5-(3-Sulfamoyl-2-(2H-tetrazol-5-yl)-4-(trifluoromethyl)phenyl)picolinamide] | – | – | – | – | – | – | – | – | IC50 (VIM-1; [15]): 2.89 nM; IC50 (IMP-1; [16]): 10.6 nM; Escherichia coli MITC95 [1, 17]: 6.25 µM; Serratia marcescens MITC95 [2, 18]: 12.5 µM; Klebsiella pneumoniae MITC95 [3, 19]: 12.5 µM; IC50 (NDM-1; [20]): 7.03 nM
7 | NS(=O)(=O)c1c(C(F)(F)F)ccc(-c2ccc3c(c2)CCNC3)c1-c1nnn[nH]1 [Example 721, 3-(1,2,3,4-tetrahydroisoquinolin-6-yl)-2-(1H-tetrazol-5-yl)-6-(trifluoromethyl)benzenesulfon-amide] | – | – | – | – | – | – | – | – | IC50 (VIM-1; [15]): 0.807 nM; IC50 (IMP-1; [16]): 9.18 nM; Escherichia coli MITC95 [1, 17]: 6.25 µM; Serratia marcescens MITC95 [2, 18]: 6.25 µM; Klebsiella pneumoniae MITC95 [3, 19]: 1.563 µM; IC50 (NDM-1; [20]): 3.02 nM
8 | NS(=O)(=O)c1c(C(F)(F)F)ccc(N2CC[C@H](CO)[C@H](F)C2)c1-c1nnn[nH]1 [Example 663, 3-[(3S,4R)-3-fluoro-4-(hydroxymethyl)piperidin-1-yl]-2-(1H-tetrazol-5-yl)-6-(trifluoromethyl)benzenesulfonamide] | – | – | – | – | – | – | – | – | IC50 (VIM-1; [15]): 0.79 nM; IC50 (IMP-1; [16]): 2.94 nM; Escherichia coli MITC95 [1, 17]: 0.8906 µM; Serratia marcescens MITC95 [2, 18]: 0.125 µM; Klebsiella pneumoniae MITC95 [3, 19]: 3.125 µM; IC50 (NDM-1; [20]): 2.46 nM
9 | CC(NCc1ccc(-c2cccc(S(N)(=O)=O)c2-c2nnn[nH]2)cc1)C(=O)O (stereo not drawn) [Example 358, N-{[3′-sulfamoyl-2′-(1H-tetrazol-5-yl)biphenyl-4-yl]methyl}alanine] | – | – | – | 288 nM | 3.125 µM | 4.688 µM | 75 µM | 32.8 nM | IC50 (VIM-1; VIM-1 IC50, VIM-1 enzyme, CCF2-FA fluorescence assay): 387 nM
10 | NS(=O)(=O)c1c(C(F)(F)F)ccc(-c2ccc(C3CN(CC4CCNC4)C3)cc2)c1-c1nnn[nH]1 (stereo not drawn) [Example 818, 4′-[1-(pyrrolidin-3-ylmethyl)azetidin-3-yl]-2-(1H-tetrazol-5-yl)-4-(trifluoromethyl)biphenyl-3-sulfonamide] | 8.6 nM | 4.38 nM | – | – | – | – | – | – | IC50 (VIM-1; [21]): 17.2 nM; Escherichia coli MITC95 [1, 6]: 1.563 µM; Serratia marcescens MITC95 [2, 7]: 3.125 µM; Klebsiella pneumoniae MITC95 [3, 8]: 12.5 µM
11 | Nc1nc2ccc(-c3cccc(S(N)(=O)=O)c3-c3nn[nH]n3)cc2[nH]1 [Example 429] | – | – | 30 nM | 499 nM | 0.0625 µM | 6.25 µM | 2.344 µM | 2.58 nM | –
12 | Nc1cc(-c2cccc(S(N)(=O)=O)c2-c2nnn[nH]2)cc(N)n1 [Example 133, 3-(2,6-diaminopyridin-4-yl)-2-(1H-tetrazol-5-yl)benzenesulfonamide] | 4920 nM | 21.6 nM | – | – | – | – | – | – | IC50 (VIM-1; [21]): 108 nM; Escherichia coli expressing NDM-1 (CLB 30016) MITC95 [1]: 0.3906 µM; Serratia marcescens expressing IMP-1 (CL5741) MITC95 [2]: 37.5 µM; Klebsiella pneumoniae expressing VIM-1 (IHMA 599644) MITC95 [3]: 6.25 µM
13 | NS(=O)(=O)c1cccc(C2CCCC2)c1-c1nnn[nH]1 [Example 160, 3-cyclopentyl-2-(1H-tetrazol-5-yl)benzenesulfonamide] | 251 nM | 9 nM | – | – | – | – | – | – | IC50 (VIM-1; [21]): 280 nM; Escherichia coli expressing NDM-1 (CLB 30016) MITC95 [1]: 0.7813 µM; Serratia marcescens expressing IMP-1 (CL5741) MITC95 [2]: 9.375 µM; Klebsiella pneumoniae expressing VIM-1 (IHMA 599644) MITC95 [3]: 75 µM
14 | NS(=O)(=O)c1c(C2CC2)ccc(-c2ccnc3ccccc23)c1-c1nn[nH]n1 [Example 275, 6-cyclopropyl-3-(quinolin-4-yl)-2-(2H-tetrazol-5-yl)benzenesulfonamide] | – | – | 0.637 nM | 6.7 nM | 3.125 µM | 0.7813 µM | 9.375 µM | 3.68 nM | –
15 | Nc1n[nH]c2cc(-c3ccc(C(F)(F)F)c(S(N)(=O)=O)c3-c3nnn[nH]3)ccc12 [Example 477, 3-(3-amino-1H-indazol-6-yl)-2-(1H-tetrazol-5-yl)-6-(trifluoromethyl)benzenesulfonamide] | – | – | 0.722 nM | 6.38 nM | 0.7813 µM | 0.5859 µM | 6.25 µM | 1.01 nM | –
16 | Nc1[nH]nc2ccc(-c3cccc(S(N)(=O)=O)c3-c3nnn[nH]3)cc12 [Example 132, 3-(3-amino-2H-indazol-5-yl)-2-(1H-tetrazol-5-yl)benzenesulfonamide] | 755 nM | 2.73 nM | – | – | – | – | – | – | IC50 (VIM-1; [21]): 26.7 nM; Escherichia coli expressing NDM-1 (CLB 30016) MITC95 [1]: 1.172 µM; Serratia marcescens expressing IMP-1 (CL5741) MITC95 [2]: 12.5 µM; Klebsiella pneumoniae expressing VIM-1 (IHMA 599644) MITC95 [3]: 6.25 µM
17 | NS(=O)(=O)c1c(C[C@H]2CC[C@H](N)CC2)ccc(-c2ccc(C3CCNC3)cc2)c1-c1nn[nH]n1 (stereo partly drawn) [Example 582, 4-(((1r,4r)-4-aminocyclohexyl)methyl)-4′-(pyrrolidin-3-yl)-2-(2H-tetrazol-5-yl)-[1,1′-biphenyl]-3-sulfonamide] | – | – | – | – | – | – | – | – | IC50 (VIM-1; [15]): 1.57 nM; IC50 (IMP-1; [16]): 17.4 nM; Escherichia coli MITC95 [1, 17]: 0.7813 µM; Serratia marcescens MITC95 [2, 18]: 1.563 µM; Klebsiella pneumoniae MITC95 [3, 19]: 1.563 µM; IC50 (NDM-1; [20]): 3.99 nM
18 | NS(=O)(=O)c1c(C(F)(F)F)ccc(-c2cnc3ncccn23)c1-c1nnn[nH]1 [Example 712, 3-imidazo[1,2-a]pyrimidin-3-yl-2-(1H-tetrazol-5-yl)-6-(trifluoromethyl)benzenesulfon-amide] | – | – | – | – | – | – | – | – | IC50 (VIM-1; VIM-1 IC50, VIM-1 enzyme, CCF2-FA substrate): 13.6 nM; IC50 (IMP-1; [16]): 126 nM; Escherichia coli MITC95 [1, 17]: 25 µM; Serratia marcescens MITC95 [2, 18]: 100 µM; Klebsiella pneumoniae MITC95 [3, 19]: 50 µM; IC50 (NDM-1; [20]): 58.7 nM
19 | NS(=O)(=O)c1cccc(-c2ccc(CNCCc3cc[nH]n3)cc2)c1-c1nnn[nH]1 [Example 389, 4′-({[2-(1H-pyrazol-3-yl)ethyl]amino}methyl)-2-(1H-tetrazol-5-yl)biphenyl-3-sulfonamide] | – | – | 146 nM | 64 nM | 1.563 µM | 2.344 µM | 75 µM | 3.33 nM | –

Source: patent US9708336B2, “Metallo-beta-lactamase inhibitors” (priority 2014, dated 2017)
